# Columns and labels:
# [1] = system: rat triple co-culture BBB model (RBEC, RPC, RAC); conditions: 10 nM, 30 min
# [2] = cited from earlier work
# Excerpt: There was a fast clearanc ...
# [3] = system: primary rat brain endothelial cells (RBEC); experiment: Real-time impedance measurement of cellular toxicity on RBEC; format: cell-based; conditions: Quasar 570 labelled PepH3 1.875-120 µM, 24 h; impedance at 10 kHz; n=6-12
# Method: Kinetics of the effect of PepH3 peptide, PepH3-tagged and non-tagged NPs on RBEC cells was monitored by impedance measurement at 10 kHz (RTCA-SP instrument; ACEA Biosciences, USA). Impedance measurement is a label-free, real time, non- invasive method, and correlates linearly with adherence, growth, number, and viability of cells. For background measurements 50 µL cell culture medium was added to the wells, then cells were seeded at a density of 6 × 10^3 cells/well to collagen type IV (100 µg/mL) and fibronectin (25 µg/mL) coated 96-well plates with integrated gold electrodes (E-plate 96, ACEA Biosciences, USA). Cells were cultured for 4 days and monitored every 5 min until the end of experiments. At the beginning of plateau phase of growth, cells were treated with PepH3 (1.875-120 µM) and PepH3-tagged and non-tagged NPs (0.1-3.0 mg/mL) for 24 h. Cell index was defined as Rn-Rb at each time point of measurement, where Rn is the cell-electrode impedance of the well when it contains cells and Rb is the background impedance of the well with the medium alone.
# [4] = system: primary rat brain endothelial cells (RBEC); experiment: Cellular uptake of PepH3 peptide in living RBECs (confocal microscopy, image analysis); format: cell-based; conditions: Quasar 570 labelled PepH3 100 nM, 37 °C, confocal image analysis normalized to nuclear intensity, n=10-25
# Method: To visualize the cellular uptake of PepH3 peptide alone, the cells were cultured in Matrigel coated glass bottom culture dishes (diameter: 3.5 cm, Greiner Bio-One, Germany). Confluent monolayers were incubated with the peptide solution (100 nM) diluted in the culture medium of RBEC at 37 °C for 30 min, 5–24 h. For the staining of cell nuclei, Hoechst 33342 dye (1 µg/mL, 10 min) was used. After incubation the culture medium was removed and cells were washed with Ringer-HEPES buffer (118 mM NaCl, 4.8 mM KCl, 2.5 mM CaCl2, 1.2 mM MgSO4, 5.5 mM D-glucose, 20 mM HEPES, pH 7.4) supplemented with 1% PDS. For visualization of PepH3, living cells was imaged using Leica TCS SP5 confocal laser scanning microscope (Leica Microsystems, Germany).
substance,measurement,setting,value
"Q-AGILKRW-NH2 [PepH3, cationic 7-residue peptide (AGILKRW), BBB peptide shuttle derived from Dengue virus type-2 capsid protein; tested Quasar 570 labelled]",Papp of PepH3 relative to transcellular BBB marker albumin (EBA),[1],71 times
same,"Accumulation in liver, lung and kidney in vivo",[2]; biodistribution profile compared to FC5,low accumulation
same,Brain uptake in vivo,"[2]; radiolabeled PepH3 peptide derivatives, biodistribution",high brain uptake
same,Effect on impedance (viability) of RBEC cell layers,[3],good cell viability
same,Peptide internalization after 5 h compared to the 30 min group,[4],1.9 fold
same,Peptide internalization after 24 h compared to the 30 min group,[4],6 fold

# — PMC11959756, “PepH3-modified nanocarriers for delivery of therapeutics across the blood-brain barrier” (Fluids and Barriers of the CNS, 2025)
